In US20070203220A1, “Inhibitors Of PAI-1 For Treatment Of Muscular Conditions” (Wyeth, priority 2006, published 2007):

Tests used:
[1] = test system: mdx mice; experiment: mdx mouse model of muscular dystrophy, drug in rodent chow for 9 months, muscle and body weights; type: in vivo; details: female mdx mice
From the text: The mdx mouse is a genetic model of Duchenne and Becker muscular dystrophies, providing a model system of muscle degeneration with aberrant regeneration. In this model, a nonsense mutation in the dystrophin gene results in the absence of dystrophin from the sarcolemma, and subsequent muscle fiber necrosis. Conversely, mice deficient in plasminogen activator inhibitor-1 have improved skeletal muscle regeneration. It was hypothesized that a small molecule PAI-1 inhibitor, such as, for example {1-Benzyl-5-[4-(trifluoromethoxy)phenyl]-1H-indol-3-yl}(oxo)acetic acid could potentially produce beneficial effects on the skeletal muscle of mdx mice.
Female mdx mice were purchased from a commercial vendor, and divided into 2 groups of equal body weight. {1-Benzyl-5-[4-(trifluoromethoxy)phenyl]-1H-indol-3-yl}(oxo)acetic acid was formulated into rodent chow at a concentration of 1 mg of drug per 1 gram of food (1 mg/g), and this mixture was formed into food pellets. A standard, pelleted rodent chow was used as the control diet. One group of mice received the drug-containing diet, while the other group received the control diet ad libitum. Each diet was coded, and the animal technicians remained blinded to the composition of the diets throughout the study.
Eight mice received either the control or drug-containing diet for 9 months. At the end of the study, the mice were killed, and muscle and body weights were measured. There was no change in body weight between groups (28.1±0.45 g for drug-treated vs. 28.3±0.69 g for Control). […] Because muscular dystrophy is a wasting disease, changes in muscle weight are routinely expressed per unit of body weight in preclinical studies. Therefore, the individual weight of each gastrocnemius muscle (mg) was expressed relative to total body weight (g). […] In drug-treated mice, muscle weight per unit of body weight was 5.02±0.13 mg/g, while in mice on the control diet, this value was 4.56 mg/g±0.20 (p=0.07).

| melting point | SMILES | difference in group means of gastrocnemius muscle weight, drug-treated vs control ([1]; drug in chow 1 mg/g) | muscle weight per unit of body weight (gastrocnemius) ([1]; drug in chow 1 mg/g ad libitum, p=0.07 vs control) | gastrocnemius muscle weight ([1]; drug in chow 1 mg/g ad libitum, p=0.11 vs control) |
| --- | --- | --- | --- | --- |
| 233 to 235 °C (dec.) | Cn1cc(C(=O)C(=O)O)c2ccc(-c3ccc(OC(F)(F)F)cc3)cc21 |  |  |  |
| 213 to 214 °C (dec.) | CC(=O)c1ccc(-c2ccc3c(c2)c(C(=O)C(=O)O)cn3Cc2ccccc2)cc1 |  |  |  |
| 195 to 196 °C | Cc1ccc(Cn2cc(C(=O)C(=O)O)c3cc(-c4ccccc4)ccc32)cc1 |  |  |  |
|  | O=C(O)C(=O)c1cn(Cc2ccccc2)c2ccc(-c3ccc(OC(F)(F)F)cc3)cc12 [{1-Benzyl-5-[4-(trifluoromethoxy)phenyl]-1H-indol-3-yl}(oxo)acetic acid] | 8.6% | 5.02 ± 0.13 mg/g | 141.0 ± 4.1 mg |
